What was measured:
[1] = tested on: iNOS and COX-2; experiment: iNOS and COX-2 expression in LPS-stimulated RAW264.7 cells (immunoblotting); assay type: cell-based, mouse; settings: RAW264.7 cells, 3.33, 10 or 30 μM, 60 ng/ml LPS, 24 hours
Protocol: To confirm an oxidative stress suppression effect, the expression levels of iNOS and COX-2 were confirmed.
To this end, the RAW264.7 cell line, which is a mouse macrophage cell line, was purchased from the Korea Cell Line Bank (KCLB, Korea) and used, and cultured in a DMEM medium (Corning, MD, USA) supplemented with 10% fetal bovine serum (Corning, MD, USA), 100 U/ml of penicillin (Corning, MD, USA), and 100 μg/ml of streptomycin (Corning, MD, USA) at 37° C. in a 5% CO2 incubator.
(§1) After 1 hour, the cells were stimulated by treatment with 60 ng/ml of LPS, and further cultured for 24 hours. The cells were disrupted by adding a RIPA buffer containing a protease inhibitor cocktail (Thermo Fisher Scientific) and centrifuged at 14,000 rpm for 15 minutes at 4° C. to obtain a cell extract. Equal amounts of the cell extract were loaded, and proteins were separated through SDS-PAGE and then transferred to a PVDF film. The protein-transferred membrane was blocked using skim milk, incubated with a primary antibody for 3 hours at room temperature, and then incubated with an HRP-conjugated secondary antibody for 1 hour at room temperature. The resulting product was washed with TBS-T three times between steps. […]

[2] = tested on: iNOS and COX-2; experiment: iNOS and COX-2 protein expression in LPS-stimulated BV-2 cells (immunoblotting); assay type: cell-based, mouse; settings: BV-2 cells, 3.33, 10 or 30 μM, 1 μg/mL LPS, 24 hours
Protocol: To further confirm the oxidative stress suppression effect, the content of nitrite released due to an inflammatory response and the expression levels of iNOS, which is an enzyme that produces nitric oxide, and COX-2, which is cyclooxygenase-2, were determined in mouse microglial cells (BV-2, ATCC, Manassas, VA, USA).
To determine the content of nitrite and the protein expression levels of iNOS and COX-2, BV-2 was seeded in a 12-well plate (Corning, MD, USA) at 1.5×10^5 cells/well, and cultured using a DMEM medium (Corning, MD, USA) containing 10% fetal bovine serum (Corning, MD, USA) and 100 U/ml of penicillin/streptomycin (Corning, MD, USA) at 37° C. in a 5% CO2 incubator for one day for stabilization. […] 1 μg/mL of LPS (Sigma, USA) was added to all experimental groups excluding the non-inflammation-induced group and allowed to react at 37° C. in a 5% CO2 incubator for 24 hours.
The cells from which the cell culture solution was harvested were disrupted by adding a RIPA buffer containing a protease inhibitor cocktail (Thermo Fisher Scientific), and centrifuged at 14,000 rpm for 15 minutes at 4° C. to obtain a cell extract. Equal amounts of the cell extract were loaded, and proteins were separated through SDS-PAGE and then transferred to a PVDF membrane. […]

[3] = tested on: SALL4; experiment: SALL4 degradation by immunoblotting in Tera-1 cells; assay type: cell-based, human; settings: 0.000128-10 μM, 4 hours
Text: It has been reported that a cereblon (CRBN)-binding therapeutic such as a thalidomide-based compound can cause severe congenital abnormalities such as forelimb shortening or brachydactyly, which are closely associated with the decomposition of SALL4.
To this end, the Tera-1 cell line (HTB-105), which is a human embryonic carcinoma cell line, was purchased from the American Type Culture Collection (ATCC, Manassas, VA, USA) and used, and then cultured using a DMEM medium (Corning, MD, USA) supplemented with 10% fetal bovine serum (Corning, MD, USA), 100 U/ml of penicillin (Corning, MD, USA), and 100 μg/ml streptomycin (Corning, MD, USA) at 37° C. in a 5% CO2 incubator.
as §1, with “The” for “After 1 hour, the cells were stimulated by treatment with 60 ng/ml of LPS, and further cultured for 24 hours. The”, “Scientific),” for “Scientific)”, “by” for “through”, “membrane.” for “film.”

[4] = tested on: mouse model with Parkinson's disease induced by MPTP administration; experiment: Pillar test in MPTP-induced Parkinson's disease mouse model; assay type: in vivo; settings: MPTP mice, oral
Protocol: To cause the disease, mice in the G2, G3, G4, and G5 groups were administered MPTP dissolved in saline via an intraperitoneal route at 2-hour intervals four times a day (20 mg/kg/time), while the G1 group received the same amount of saline.
Using a wooden pillar (length: 80 cm, diameter: 0.8˜1 cm) placed vertically on the cage floor, mice were trained to turn around from the top of the pillar in the opposite direction and descend to the bottom three times a day on days 2-3 of the test. On day 4 of the test, the same test was performed three times, and the time it took to change direction from the top and descend.

Compound: Nc1cccc2c1C(=S)N(C1CCC(=O)NC1=O)C2=O (centres unmarked) [3-MP, 3-thiopomalidomide]
- expression of iNOS and COX-2 (protein) [1]: inhibit the expression of iNOS and COX-2
- expression of oxidative stress-associated proteins (iNOS and COX-2) [2]: effectively reduced
- decomposition of SALL4 [3]: less decomposition of SALL4 than pomalidomide
- pillar descent time ([4]; 90 mg/kg): recovered to a level similar to that of the vehicle administration group
- pillar descent time ([4]; all doses (10, 30, 90 mg/kg/day), versus MPTP group): reduced to a statistically significant level
